# Experiments:
# [1] = test system: HIV-1 wild-type (R8) virus; test: Viral KINetics in Green cells (VIKING) assay, HIV-1 replication in MT4-GFP reporter cells; format: cell-based; conditions: Human immunodeficiency virus 1, 10% normal human serum, MT4-GFP cells, HIV-1 wild-type (R8); read-out: Viking (10% NHS), IC50
# Procedure, shortened: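 Compounds in 3-fold, 10-point series (typical 4 μM-0.2 nM) in 10% normal human serum received MT4 GFP-reporter T cells pre-infected overnight with wild-type R8 virus (MOI ~0.01). Ratio of GFP-positive cells at 72 vs 48 h defined replication; IC50 from nonlinear 4-parameter dose-response fitting.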
# [2] = Plasma stability in frozen human plasma; format: in vitro ADME; conditions: frozen human plasma at 37° C., 0-3 hr; read-out: T1/2 Human Plasma (converted)
# Method: Plasma stability of the compounds was evaluated in frozen human plasma at 37° C. in a 10% CO2 environment. The stability of the analyte was assessed by determining the percentage of drug loss over the course of 0, 0.25, 0.5, 1, and 3 hr. In addition, the appearance of Compound A was determined for the same time course. Percent of drug loss as based on ratio with internal standard. Analyte concentrations were measured by LC/MS/MS. Linear regression was performed with log transformed percent of average TO values and linear time values. The elimination rate constant (ke) was calculated from the slope of this regression line and the half-life (T½) calculated based on the elimination rate constant.
# [3] = Aqueous solubility in PBS, pH 7.4; format: physicochemical; conditions: phosphate buffered saline, pH 7.4, aqueous buffer, thermodynamic from solid, pH 7.4 phosphate buffered saline, 24 hours, amorphous or crystalline material; read-out: Aqu. Solubility
# Procedure, shortened: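 Excess solid suspended at 0.5 mg/mL in PBS pH 7.4 and stirred 24 hours. Filtrate (0.45 μm) diluted 1:1 with ACN:H2O and quantified by UPLC against a standard curve; residual solid phase checked by XRPD and PLM.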
half-life [2] [min],solubility at 24 h [3] [µg/mL],Compound,IC50 [1] [nM]
24.6,2.9,"C#C[C@]1(CO)O[C@@H](n2ccc3c(N)nc(Cl)nc32)C[C@@H]1OC(=O)Oc1ccccc1 [Example 12, (2R,3S,5R)-5-(4-amino-2-chloro-7H-pyrrolo[2,3-d]pyrimidin-7-yl)-2-ethynyl-2-(hydroxymethyl)tetrahydrofuran-3-yl phenyl carbonate]",2.9
< 15,113,"C#C[C@]1(COC(=O)OCCCCC)O[C@@H](n2ccc3c(N)nc(Cl)nc32)C[C@@H]1O [Example 14, ((2R,3S,5R)-5-(4-amino-2-chloro-7H-pyrrolo[2,3-d]pyrimidin-7-yl)-2-ethynyl-3-hydroxytetrahydrofuran-2-yl)methyl pentyl carbonate]",2.5
< 15,55,"C#C[C@]1(COC(=O)CCCC)O[C@@H](n2ccc3c(N)nc(Cl)nc32)C[C@@H]1O [Example 15, ((2R,3S,5R)-5-(4-amino-2-chloro-7H-pyrrolo[2,3-d]pyrimidin-7-yl)-2-ethynyl-3-hydroxytetrahydrofuran-2-yl)methyl pentanoate]",2.3
1.68,351,"C#C[C@]1(COC(=O)OC(C)C)O[C@@H](n2ccc3c(N)nc(Cl)nc32)C[C@@H]1O [Example 23, ((2R,3S,5R)-5-(4-amino-2-chloro-7H-pyrrolo[2,3-d]pyrimidin-7-yl)-2-ethynyl-3-hydroxytetrahydrofuran-2-yl)methyl isopropyl carbonate]",2.2
114,282,"C#C[C@]1(COC(=O)C(CC)CC)O[C@@H](n2ccc3c(N)nc(Cl)nc32)C[C@@H]1O [Example 40, ((2R,3S,5R)-5-(4-amino-2-chloro-7H-pyrrolo[2,3-d]pyrimidin-7-yl)-2-ethynyl-3-hydroxytetrahydrofuran-2-yl)methyl 2-ethylbutanoate]",5.5
< 15,< 1,"C#C[C@]1(COC(=O)C(C)C)O[C@@H](n2ccc3c(N)nc(Cl)nc32)C[C@@H]1OC(=O)C(C)C [Example 42, (2R,3S,5R)-5-(4-amino-2-chloro-7H-pyrrolo[2,3-d]pyrimidin-7-yl)-2-ethynyl-2-((isobutyryloxy)methyl)tetrahydrofuran-3-yl isobutyrate]",10.9
132,< 1,"C#C[C@]1(COC(=O)C(CC)CC)O[C@@H](n2ccc3c(N)nc(Cl)nc32)C[C@@H]1OC(=O)C(CC)CC [Example 44, (2R,3S,5R)-5-(4-amino-2-chloro-7H-pyrrolo[2,3-d]pyrimidin-7-yl)-2-(((2-ethylbutanoyl)oxy)methyl)-2-ethynyltetrahydrofuran-3-yl 2-ethylbutanoate]",351
1160,45,"C#C[C@]1(CO)O[C@@H](n2ccc3c(N)nc(Cl)nc32)C[C@@H]1OC(=O)C(CC)CC [Example 45, (2R,3S,5R)-5-(4-amino-2-chloro-7H-pyrrolo[2,3-d]pyrimidin-7-yl)-2-ethynyl-2-(hydroxymethyl)tetrahydrofuran-3-yl 2-ethylbutanoate]",143

# — patent US20240287124A1, “PRODRUGS OF 4'-SUBSTITUTED NUCLEOSIDE REVERSE TRANSCRIPTASE INHIBITORS” (Merck Sharp & Dohme LLC, priority 2023, published 2024)
